Data: patent US20230158016A1, “DELTA OPIOID RECEPTOR ANTAGONISTS REPROGRAM IMMUNOSUPPRESSIVE MICROENVIRONMENT TO BOOST IMMUNOTHERAPY” (H LEE MOFFITT CANCER CENTER AND RESEARCH INSTITUTE, INC., priority 2020, published 2023)
Structures can show the parent of a compound that is named as a salt.

System: Bone marrow precursors
Assay: Development of MDSC from bone marrow precursors cultured in GM-CSF and G-CSF with DOR antagonists
Type: cell-based, mice
Settings: bone marrow precursors cultured 96 hours in GM-CSF and G-CSF (20 ng/ml each), increasing concentrations of antagonist
Description: Next the effect of DOR antagonist on M-MDSC was investigated. Bone marrow precursors were isolated and cultured for 96 hours in GM-CSF and G-CSF (20 ng/ml each) in the presence of increasing concentrations of the DOR antagonists Naltriben mesylate (NTB) or Naltrindole hydrochloride (NTD). Then, we evaluated cell viability by flow cytometry (using DAPI). […] Additionally, the number of M-MDSC (CD11b^+Ly6G^negLy6C^high) and PMN-MDSC (CD11b^+Ly6G^+Ly6C^low) was calculated.
The conjugated antibodies and probes used for flow cytometry are listed in the Key Resources Table. For surface staining, cells were labelled with the appropriate antibodies in the presence of Fc blocker. For intracellular staining, surface-labeled cells were fixed with Cytofix/Cytoperm™ Solution (BD Biosciences), washed in Perm/Wash™ 1×solution, and labelled with intracellular antibodies. Cells were then washed in Perm/Wash™ 1×and PBS. Live vs. dead cell discrimination was performed prior to antibody labeling by Zombie Fixable Viability dye (Biolegend). Ex vivo intracellular staining for IL-12 and TNFα was performed on isolated cells after stimulation for 6 hours with LPS (1 μg/ml, Sigma Aldrich) in the presence of Golgi stop (0.8 μl/ml, BD Biosciences). For IFNγ staining, cells were incubated for 5 hours with phorbol myristate acetate (PMA, 750 ng/mL, Sigma Aldrich) and ionomycin (50 μg/mL, Sigma-Aldrich) in the presence and Golgi stop (0.8 μl/ml). For ER-tracker and Mitotracker staining, cells were probed with 100 nM of ER tracker green or 200 nM of Mitotracker green (Invitrogen) and then stained for surface markers. For Mitochondrial membrane potential, cells were stained with JC-1 flow cytometry assay kit (Cayman chemicals) followed by surface markers staining. ROS were detected by DCFDA (10 μM) or Dihydroethidium (DHE, 10 μM). Data acquisition was performed in a CytoFLEX II (Beckman Coulter) or LSRII (BD Biosciences). All analysis was performed using FlowJo version 11 software.

Oc1ccc2c3c1O[C@H]1c4[nH]c5ccccc5c4C[C@@]4(O)[C@@H](C2)N(CC2CC2)CC[C@]314 [NTD, Naltrindole hydrochloride]
absolute number of generated MDSC (CD11b+Gr1+): steady decline of MDSC as concentrations increased | cell viability by flow cytometry (using DAPI): strong correlation increasing concentration of either NTD or NTB and cell death | number of M-MDSC (CD11b+Ly6GnegLy6Chigh): the more significant losses were observed in the M-MDSC subset | number of PMN-MDSC (CD11b+Ly6G+Ly6Clow): declined in number as the concentration of NTD or NTB increased

Naltriben mesylate [NTB]
absolute number of generated MDSC (CD11b+Gr1+): steady decline of MDSC as concentrations increased | cell viability by flow cytometry (using DAPI): strong correlation increasing concentration of either NTD or NTB and cell death | number of M-MDSC (CD11b+Ly6GnegLy6Chigh): the more significant losses were observed in the M-MDSC subset | number of PMN-MDSC (CD11b+Ly6G+Ly6Clow): declined in number as the concentration of NTD or NTB increased
